PubChem BioAssay (NCI)
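Where inhibition never reached the appropriate level, the endpoint shown equals the highest concentration tested. Otherwise, values were interpolated linearly from a five-concentration, 48-hour dose response in 96-well plates. TGI denotes the concentration required for complete inhibition of growth.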

Legend:
Test in all cases: inhibition of tumour cell growth, NCI panel, 48 h
A549 NSCLC = tested on: A549 NSCLC
SK-MEL-2 melanoma = tested on: SK-MEL-2 melanoma
NCI/ADR-RES ovarian = tested on: NCI/ADR-RES ovarian
T-47D breast = tested on: T-47D breast
OVCAR-3 ovarian = tested on: OVCAR-3 ovarian
RPMI-8226 leukemia = tested on: RPMI-8226 leukemia
UO-31 renal = tested on: UO-31 renal
CCRF-CEM leukemia = tested on: CCRF-CEM leukemia
RXF 393 renal = tested on: RXF 393 renal
HT29 colon = tested on: HT29 colon
U251 CNS = tested on: U251 CNS
HL-60(TB) leukemia = tested on: HL-60(TB) leukemia
SK-MEL-5 melanoma = tested on: SK-MEL-5 melanoma
DU-145 prostate = tested on: DU-145 prostate
SNB-75 CNS = tested on: SNB-75 CNS
COLO 205 colon = tested on: COLO 205 colon
OVCAR-5 ovarian = tested on: OVCAR-5 ovarian
MDA-MB-231 breast = tested on: MDA-MB-231 breast
SR leukemia = tested on: SR leukemia
MDA-MB-435 = tested on: MDA-MB-435
OVCAR-4 ovarian = tested on: OVCAR-4 ovarian
K-562 leukemia = tested on: K-562 leukemia
HS 578T breast = tested on: HS 578T breast
UACC-257 melanoma = tested on: UACC-257 melanoma
HOP-92 NSCLC = tested on: HOP-92 NSCLC
OVCAR-8 ovarian = tested on: OVCAR-8 ovarian
NCI-H226 lung = tested on: NCI-H226 lung
A498 renal = tested on: A498 renal
CAKI-1 renal = tested on: CAKI-1 renal
SF-268 CNS = tested on: SF-268 CNS
MOLT-4 leukemia = tested on: MOLT-4 leukemia
IGROV1 ovarian = tested on: IGROV1 ovarian
HOP-62 NSCLC = tested on: HOP-62 NSCLC
PC-3 prostate = tested on: PC-3 prostate
SK-MEL-28 melanoma = tested on: SK-MEL-28 melanoma
ACHN renal = tested on: ACHN renal
KM12 colon = tested on: KM12 colon
MCF7 breast = tested on: MCF7 breast
HCT-15 colon = tested on: HCT-15 colon
TK-10 renal = tested on: TK-10 renal
SW-620 colon = tested on: SW-620 colon
EKVX NSCLC = tested on: EKVX NSCLC
UACC-62 melanoma = tested on: UACC-62 melanoma
HCC-2998 colon = tested on: HCC-2998 colon
MALME-3M melanoma = tested on: MALME-3M melanoma
SF-295 CNS = tested on: SF-295 CNS
SNB-19 CNS = tested on: SNB-19 CNS
M14 melanoma = tested on: M14 melanoma
NCI-H23 lung = tested on: NCI-H23 lung
SK-OV-3 ovarian = tested on: SK-OV-3 ovarian
LOX IMVI melanoma = tested on: LOX IMVI melanoma
NCI-H460 lung = tested on: NCI-H460 lung
MDA-N = tested on: MDA-N
NCI-H522 lung = tested on: NCI-H522 lung
786-0 renal = tested on: 786-0 renal
SN12C renal = tested on: SN12C renal
SF-539 CNS = tested on: SF-539 CNS
HCT-116 colon = tested on: HCT-116 colon

SMILES: CC(C)c1ccccc1SCc1cc(=O)cc(CSc2ccccc2C(C)C)o1
- TGI (A549 NSCLC): > 100 µM
- TGI (SK-MEL-2 melanoma): 34.5 µM
- TGI (NCI/ADR-RES ovarian): 41.5 µM
- TGI (T-47D breast): > 100 µM
- TGI (OVCAR-3 ovarian): 39.2 µM
- TGI (RPMI-8226 leukemia): > 100 µM
- TGI (UO-31 renal): > 100 µM
- TGI (CCRF-CEM leukemia): 95.6 µM
- TGI (RXF 393 renal): > 100 µM
- TGI (HT29 colon): 41.2 µM
- TGI (U251 CNS): 86.8 µM
- TGI (HL-60(TB) leukemia): 82 µM
- TGI (SK-MEL-5 melanoma): > 100 µM
- TGI (DU-145 prostate): 55.4 µM
- TGI (SNB-75 CNS): 36.5 µM
- TGI (COLO 205 colon): > 100 µM
- TGI (OVCAR-5 ovarian): 34.7 µM
- TGI (MDA-MB-231 breast): 49.5 µM
- TGI (SR leukemia): > 100 µM
- TGI (MDA-MB-435): 32.8 µM
- TGI (OVCAR-4 ovarian): 46.9 µM
- TGI (K-562 leukemia): > 100 µM
- TGI (HS 578T breast): 32.9 µM
- TGI (UACC-257 melanoma): 51 µM
- TGI (HOP-92 NSCLC): 36.7 µM
- TGI (OVCAR-8 ovarian): 54.9 µM
- TGI (NCI-H226 lung): 41.7 µM
- TGI (A498 renal): 40.9 µM
- TGI (CAKI-1 renal): 49.4 µM
- TGI (SF-268 CNS): 33.4 µM
- TGI (MOLT-4 leukemia): 93.3 µM
- TGI (IGROV1 ovarian): 33.1 µM
- TGI (HOP-62 NSCLC): 43.6 µM
- TGI (PC-3 prostate): 30.7 µM
- TGI (SK-MEL-28 melanoma): 57.8 µM
- TGI (ACHN renal): > 100 µM
- TGI (KM12 colon): 32.9 µM
- TGI (MCF7 breast): 57.5 µM
- TGI (HCT-15 colon): 94.3 µM
- TGI (TK-10 renal): 38.7 µM
- TGI (SW-620 colon): 81.2 µM
- TGI (EKVX NSCLC): 38.4 µM
- TGI (UACC-62 melanoma): 36.2 µM
- TGI (HCC-2998 colon): 84.5 µM
- TGI (MALME-3M melanoma): 44.4 µM
- TGI (SF-295 CNS): 67.5 µM
- TGI (SNB-19 CNS): > 100 µM
- TGI (M14 melanoma): 49.5 µM
- TGI (NCI-H23 lung): > 100 µM
- TGI (SK-OV-3 ovarian): 48 µM
- TGI (LOX IMVI melanoma): 84.4 µM
- TGI (NCI-H460 lung): 69.7 µM
- TGI (MDA-N): 44.9 µM

SMILES: CC1=C(C)CC2(C=C(C(C)(C)C)C(=O)C(C(C)(C)C)=C2)SC1
- TGI (A549 NSCLC): 65.3 µM
- TGI (SK-MEL-2 melanoma): 26 µM
- TGI (NCI-H522 lung): 16.5 µM
- TGI (NCI/ADR-RES ovarian): 39.4 µM
- TGI (T-47D breast): 87.3 µM
- TGI (OVCAR-3 ovarian): 36.1 µM
- TGI (RPMI-8226 leukemia): 33.8 µM
- TGI (786-0 renal): 36 µM
- TGI (UO-31 renal): 29.7 µM
- TGI (CCRF-CEM leukemia): 51 µM
- TGI (RXF 393 renal): 38.7 µM
- TGI (HT29 colon): 43 µM
- TGI (U251 CNS): 29.9 µM
- TGI (HL-60(TB) leukemia): 64.6 µM
- TGI (SK-MEL-5 melanoma): 27.4 µM
- TGI (DU-145 prostate): > 100 µM
- TGI (SNB-75 CNS): 34.2 µM
- TGI (COLO 205 colon): 32.1 µM
- TGI (OVCAR-5 ovarian): 35.7 µM
- TGI (MDA-MB-231 breast): 29.2 µM
- TGI (SR leukemia): > 100 µM
- TGI (MDA-MB-435): 43.6 µM
- TGI (OVCAR-4 ovarian): > 100 µM
- TGI (K-562 leukemia): > 100 µM
- TGI (SN12C renal): 33.2 µM
- TGI (HS 578T breast): 36.8 µM
- TGI (UACC-257 melanoma): > 100 µM
- TGI (HOP-92 NSCLC): 47.7 µM
- TGI (NCI-H226 lung): 34.4 µM
- TGI (A498 renal): 35.4 µM
- TGI (CAKI-1 renal): 54.9 µM
- TGI (SF-268 CNS): 46.6 µM
- TGI (MOLT-4 leukemia): > 100 µM
- TGI (IGROV1 ovarian): 29.4 µM
- TGI (HOP-62 NSCLC): 37.9 µM
- TGI (PC-3 prostate): 73.8 µM
- TGI (SF-539 CNS): 38 µM
- TGI (KM12 colon): 55 µM
- TGI (MCF7 breast): 36.6 µM
- TGI (TK-10 renal): 37.9 µM
- TGI (SW-620 colon): 41.1 µM
- TGI (EKVX NSCLC): 36.9 µM
- TGI (UACC-62 melanoma): 95.6 µM
- TGI (MALME-3M melanoma): 33.4 µM
- TGI (SF-295 CNS): 31.4 µM
- TGI (SNB-19 CNS): 31.5 µM
- TGI (M14 melanoma): 99.4 µM
- TGI (HCT-116 colon): > 100 µM
- TGI (NCI-H23 lung): 57.1 µM
- TGI (SK-OV-3 ovarian): 71 µM
- TGI (LOX IMVI melanoma): 33.1 µM
- TGI (NCI-H460 lung): > 100 µM
- TGI (MDA-N): 90.3 µM

SMILES: CCOC(=O)c1c(SC(=O)c2ccc(OC)cc2)n(-c2ccccc2)c(=S)n(-c2ccccc2)c1=O
- TGI (A549 NSCLC): > 100 µM
- TGI (NCI-H522 lung): > 100 µM
- TGI (NCI/ADR-RES ovarian): > 100 µM
- TGI (T-47D breast): > 100 µM
- TGI (OVCAR-3 ovarian): > 100 µM
- TGI (786-0 renal): > 100 µM
- TGI (CCRF-CEM leukemia): > 100 µM
- TGI (RXF 393 renal): > 100 µM
- TGI (HT29 colon): > 100 µM
- TGI (U251 CNS): > 100 µM
- TGI (HL-60(TB) leukemia): 70.2 µM
- TGI (DU-145 prostate): > 100 µM
- TGI (SNB-75 CNS): > 100 µM
- TGI (COLO 205 colon): > 100 µM
- TGI (OVCAR-5 ovarian): > 100 µM
- TGI (MDA-MB-231 breast): 81 µM
- TGI (SR leukemia): > 100 µM
- TGI (MDA-MB-435): > 100 µM
- TGI (OVCAR-4 ovarian): > 100 µM
- TGI (K-562 leukemia): > 100 µM
- TGI (SN12C renal): > 100 µM
- TGI (HS 578T breast): > 100 µM
- TGI (UACC-257 melanoma): > 100 µM
- TGI (HOP-92 NSCLC): > 100 µM
- TGI (OVCAR-8 ovarian): 76.5 µM
- TGI (NCI-H226 lung): > 100 µM
- TGI (A498 renal): > 100 µM
- TGI (CAKI-1 renal): > 100 µM
- TGI (SF-268 CNS): 43.4 µM
- TGI (MOLT-4 leukemia): 64 µM
- TGI (IGROV1 ovarian): 38 µM
- TGI (HOP-62 NSCLC): > 100 µM
- TGI (PC-3 prostate): > 100 µM
- TGI (SK-MEL-28 melanoma): > 100 µM
- TGI (ACHN renal): > 100 µM
- TGI (SF-539 CNS): 42.2 µM
- TGI (KM12 colon): > 100 µM
- TGI (MCF7 breast): > 100 µM
- TGI (HCT-15 colon): 47.8 µM
- TGI (TK-10 renal): > 100 µM
- TGI (SW-620 colon): 52.5 µM
- TGI (EKVX NSCLC): > 100 µM
- TGI (UACC-62 melanoma): > 100 µM
- TGI (HCC-2998 colon): > 100 µM
- TGI (MALME-3M melanoma): > 100 µM
- TGI (SF-295 CNS): > 100 µM
- TGI (SNB-19 CNS): > 100 µM
- TGI (M14 melanoma): 83.2 µM
- TGI (HCT-116 colon): 47.9 µM
- TGI (NCI-H23 lung): > 100 µM
- TGI (SK-OV-3 ovarian): > 100 µM
- TGI (LOX IMVI melanoma): > 100 µM
- TGI (NCI-H460 lung): > 100 µM
- TGI (MDA-N): > 100 µM
